Assay results reported in ChEMBL document CHEMBL1201862, “PubChem BioAssay data set” (2004).
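In this assay, cells in 96-well plates receive the compound at five concentrations for 48 hours. Endpoints are linearly interpolated between the surrounding concentrations. The concentration for 50% growth inhibition is given as GI50.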 Active and inactive are the calls of the source. No stated cut-off is given here; in the data, active = GI50 up to about 1.1 µM and inactive = higher.

How the values were obtained:
Test in all cases: DTP human tumour cell line panel, 48 h
A549 = system: A549
SF-295 = system: SF-295
HOP-62 = system: HOP-62
NCI-H23 = system: NCI-H23
RPMI-8226 = system: RPMI-8226
SR = system: SR
MOLT-4 = system: MOLT-4
Malme-3M = system: Malme-3M
U-251 = system: U-251
TK-10 = system: TK-10
UACC-62 = system: UACC-62
HT-29 = system: HT-29
EKVX = system: EKVX
786-0 = system: 786-0
LOX IMVI = system: LOX IMVI
SK-MEL-2 = system: SK-MEL-2
HCT-15 = system: HCT-15

Row | Structure (SMILES) | GI50 (A549) | GI50 (SF-295) | GI50 (HOP-62) | GI50 (NCI-H23) | GI50 (RPMI-8226) | GI50 (SR) | GI50 (MOLT-4) | GI50 (Malme-3M) | GI50 (U-251) | GI50 (TK-10) | GI50 (UACC-62) | GI50 (HT-29) | GI50 (EKVX) | GI50 (786-0) | GI50 (LOX IMVI) | GI50 (SK-MEL-2) | GI50 (HCT-15)
1 | CC(=O)C1C(=O)C(=O)N(c2ccccc2N2C(=O)C(=O)C(C(C)=O)C2=O)C1=O (configuration not stated) | > 100 µM (inactive) | > 100 µM (inactive) | > 100 µM (inactive) | > 100 µM (inactive) | > 100 µM (inactive) | > 100 µM (inactive) | > 100 µM (inactive) | > 100 µM (inactive) | > 100 µM (inactive) | > 100 µM (inactive) | > 100 µM (inactive) | > 100 µM (inactive) | 39.9 µM (inactive) | > 100 µM (inactive) | > 100 µM (inactive) | > 100 µM (inactive) | > 100 µM
2 | C=CCC12CC(=O)CCC1c1ccc(OC)cc1C2=O (configuration not stated) | > 100 µM (inactive) | > 100 µM (inactive) | > 100 µM (inactive) | > 100 µM (inactive) | > 100 µM (inactive) | > 100 µM (inactive) | > 100 µM (inactive) | > 100 µM (inactive) | > 100 µM (inactive) | > 100 µM (inactive) | > 100 µM (inactive) | > 100 µM (inactive) | > 100 µM (inactive) | > 100 µM (inactive) | > 100 µM (inactive) | > 100 µM (inactive) | > 100 µM
3 | C[C@]12CCC[C@H](Cl)C1(O)C[C@H](C(=O)O)CC2 (some centres not stated) | > 100 µM (inactive) | > 100 µM (inactive) | > 100 µM (inactive) | > 100 µM (inactive) | > 100 µM (inactive) | > 100 µM (inactive) | > 100 µM (inactive) | > 100 µM (inactive) | > 100 µM (inactive) | > 100 µM (inactive) | > 100 µM (inactive) | > 100 µM (inactive) | > 100 µM (inactive) | > 100 µM (inactive) | > 100 µM (inactive) | > 100 µM (inactive) | > 100 µM
4 | Cc1cccc(C)c1NC(=O)C(=O)CC(=O)CO | > 100 µM (inactive) | > 100 µM (inactive) | > 100 µM (inactive) | > 100 µM (inactive) | > 100 µM (inactive) | > 100 µM (inactive) | > 100 µM (inactive) | > 100 µM (inactive) | > 100 µM (inactive) | > 100 µM (inactive) | > 100 µM (inactive) | > 100 µM (inactive) | > 100 µM (inactive) | > 100 µM (inactive) | > 100 µM (inactive) | > 100 µM (inactive) | > 100 µM
5 | Cc1cc2c(cc1CO)N1Cc3cc(C)c(CO)cc3N(C2)C1 | > 100 µM (inactive) | > 100 µM (inactive) | > 100 µM (inactive) | > 100 µM (inactive) | > 100 µM (inactive) |  | > 100 µM (inactive) |  | > 100 µM (inactive) | > 100 µM (inactive) | > 100 µM (inactive) | > 100 µM (inactive) | > 100 µM (inactive) | > 100 µM (inactive) | > 100 µM (inactive) |  | 
6 | COc1ccc(N/N=C(\CCN(C)C)c2ccccc2)cc1 | 1.67 µM (inactive) | 0.437 µM (active) | 2.1 µM (inactive) | 4.43 µM (inactive) | 2.39 µM (inactive) | 3.17 µM (inactive) | 3.39 µM (inactive) | 11.7 µM (inactive) | 1.79 µM (inactive) | 2.23 µM (inactive) | 1.9 µM (inactive) | 6.85 µM (inactive) | 2.2 µM (inactive) | 3.4 µM (inactive) | 2.07 µM (inactive) | 4.49 µM (inactive) | 1.15 µM
7 | NC(CCC(=O)Nc1ccc(O)cc1)C(=O)O (configuration not stated) | > 100 µM (inactive) |  | > 100 µM (inactive) |  | > 100 µM (inactive) | > 100 µM (inactive) | > 100 µM (inactive) | > 100 µM (inactive) | > 100 µM (inactive) | > 100 µM (inactive) | > 100 µM (inactive) | > 100 µM (inactive) | > 100 µM (inactive) | > 100 µM (inactive) | > 100 µM (inactive) | > 100 µM (inactive) | > 100 µM
8 | N#CC1(c2nc3ccccc3o2)C(=O)C(=O)N(c2ccc(Cl)c(Cl)c2)C(=O)C1=O | > 100 µM (inactive) | > 100 µM (inactive) | > 100 µM (inactive) | > 100 µM (inactive) | > 100 µM (inactive) |  | 30.3 µM (inactive) | > 100 µM (inactive) |  | > 100 µM (inactive) |  | > 100 µM (inactive) | > 100 µM (inactive) | > 100 µM (inactive) | > 100 µM (inactive) | > 100 µM (inactive) | 74.6 µM
9 | c1cnc2c(c1)-n1cccc1C1(CCSC1)NN2 (configuration not stated) | > 100 µM (inactive) | > 100 µM (inactive) | > 100 µM (inactive) | > 100 µM (inactive) | > 100 µM (inactive) | > 100 µM (inactive) | > 100 µM (inactive) | > 100 µM (inactive) | > 100 µM (inactive) | > 100 µM (inactive) |  | > 100 µM (inactive) | > 100 µM (inactive) | > 100 µM (inactive) | > 100 µM (inactive) | > 100 µM (inactive) | > 100 µM
10 | CCOC(=O)C1(Br)C(c2ccccc2)NC(=O)N(C2OC(COC(=O)c3ccccc3)C(OC(=O)c3ccccc3)C2OC(=O)c2ccccc2)C1(C)Br (configuration not stated) | 12.9 µM (inactive) | 33.3 µM (inactive) | 38.9 µM (inactive) | 29.4 µM (inactive) | 9.31 µM (inactive) |  | 18.2 µM (inactive) | 23.8 µM (inactive) | 27.8 µM (inactive) | 39.4 µM (inactive) | 10.6 µM (inactive) | 18.2 µM (inactive) | 36.7 µM (inactive) | 12.9 µM (inactive) | 21.8 µM (inactive) | 31.5 µM (inactive) | 15.8 µM
11 | COc1cc2c(cc1OC)C(CC1=C(c3ccccc3)CN3CCc4cc(OC)c(OC)cc4C3C1)NCC2 (configuration not stated) | 17 µM (inactive) | 16.8 µM (inactive) |  | 23.1 µM (inactive) | 9.84 µM (inactive) |  | 9.91 µM (inactive) | 19.5 µM (inactive) | 15.2 µM (inactive) | 16.6 µM (inactive) | 20.4 µM (inactive) | 10.4 µM (inactive) | 21.8 µM (inactive) | 15.7 µM (inactive) | 15.8 µM (inactive) | 20.5 µM (inactive) | 17.7 µM
12 | Nc1ccc(N)c2c1C(=O)c1c(N)ccc(N)c1C2=O | 62.7 µM (inactive) | 70 µM (inactive) | 78.2 µM (inactive) | > 73.1 µM (inactive) | > 57.3 µM (inactive) |  | 25.9 µM (inactive) | > 100 µM (inactive) | 50 µM (inactive) | > 59.3 µM (inactive) | 58.3 µM (inactive) | > 100 µM (inactive) | > 64.9 µM (inactive) | 36.9 µM (inactive) | > 31.6 µM (inactive) | > 84.7 µM (inactive) | > 66.5 µM
13 | CC(=O)OC1=C2CC[C@@H]3C(CC[C@@]4(C)C3CC[C@@H]4OC(C)=O)[C@@]2(C)CC(C#N)C1=O (some centres not stated) | 30.8 µM (inactive) | 32.8 µM (inactive) | 8.67 µM (inactive) | 27.9 µM (inactive) | 12 µM (inactive) |  | 23.4 µM (inactive) | 5.58 µM (inactive) | 27.4 µM (inactive) | 23.6 µM (inactive) | 12.8 µM (inactive) | 26.5 µM (inactive) | 33 µM (inactive) | 10.8 µM (inactive) | 16.8 µM (inactive) | 4.32 µM (inactive) | 28.9 µM
14 | COC(=O)C(=O)C1CCCCC(C2=NC3NN=C(N)N3C2=O)C1=O (configuration not stated) | > 100 µM (inactive) | > 100 µM (inactive) | > 100 µM (inactive) | > 100 µM (inactive) |  | > 100 µM (inactive) | > 100 µM (inactive) | > 100 µM (inactive) | > 100 µM (inactive) | > 100 µM (inactive) | > 100 µM (inactive) | > 100 µM (inactive) | > 100 µM (inactive) | > 100 µM (inactive) | > 100 µM (inactive) | > 100 µM (inactive) | > 100 µM
15 | O=C1c2cnccc2Cc2cccc3c2N1c1ccccc1S3 | 23.6 µM (inactive) | 28.2 µM (inactive) | 20.9 µM (inactive) | 20.1 µM (inactive) | 20.6 µM (inactive) | 12.4 µM (inactive) | 28.3 µM (inactive) | 24.7 µM (inactive) | 16.6 µM (inactive) |  | 18 µM (inactive) | 23.9 µM (inactive) |  | 28.1 µM (inactive) | 22.7 µM (inactive) | 16.8 µM (inactive) | 23.3 µM
16 | Cc1ccc(NC(=O)CC(=O)N2N=C(N(CCC#N)c3cccc(C)c3)CC2c2ccccc2)cc1 (configuration not stated) | > 100 µM (inactive) | > 100 µM (inactive) | > 100 µM (inactive) | > 100 µM (inactive) | > 100 µM (inactive) | > 100 µM (inactive) | > 100 µM (inactive) | > 100 µM (inactive) | > 100 µM (inactive) |  | > 100 µM (inactive) | > 100 µM (inactive) | 5.97 µM (inactive) | > 100 µM (inactive) |  | > 100 µM (inactive) | > 100 µM
17 | Cc1ccc(NC(=O)C(=O)C(C#N)c2nc(-c3ccc(-c4ccccc4)cc3)cs2)c(C)c1 (configuration not stated) | > 100 µM (inactive) | > 100 µM (inactive) | > 100 µM (inactive) |  | > 100 µM (inactive) | > 100 µM (inactive) | > 100 µM (inactive) | > 100 µM (inactive) | 47.3 µM (inactive) | > 100 µM (inactive) | > 100 µM (inactive) |  | > 100 µM (inactive) | > 100 µM (inactive) | > 100 µM (inactive) | > 100 µM (inactive) | > 100 µM
